Results taken from patent publication US20260055079A1, “PHTHALAZINONE COMPOUNDS AS PARP7 INHIBITORS” (AZKARRA THERAPEUTICS, INC., priority 2022, published 2026).

What follows are compounds tested against His-GST-PARP7 (Homo sapiens (Human), UniProt Q7Z3E1) (assay: PARP7 biochemical assay). Details: read-out: PARP7 IC50.
His-GST-PARP7, sequence (Q7Z3E1 whole entry): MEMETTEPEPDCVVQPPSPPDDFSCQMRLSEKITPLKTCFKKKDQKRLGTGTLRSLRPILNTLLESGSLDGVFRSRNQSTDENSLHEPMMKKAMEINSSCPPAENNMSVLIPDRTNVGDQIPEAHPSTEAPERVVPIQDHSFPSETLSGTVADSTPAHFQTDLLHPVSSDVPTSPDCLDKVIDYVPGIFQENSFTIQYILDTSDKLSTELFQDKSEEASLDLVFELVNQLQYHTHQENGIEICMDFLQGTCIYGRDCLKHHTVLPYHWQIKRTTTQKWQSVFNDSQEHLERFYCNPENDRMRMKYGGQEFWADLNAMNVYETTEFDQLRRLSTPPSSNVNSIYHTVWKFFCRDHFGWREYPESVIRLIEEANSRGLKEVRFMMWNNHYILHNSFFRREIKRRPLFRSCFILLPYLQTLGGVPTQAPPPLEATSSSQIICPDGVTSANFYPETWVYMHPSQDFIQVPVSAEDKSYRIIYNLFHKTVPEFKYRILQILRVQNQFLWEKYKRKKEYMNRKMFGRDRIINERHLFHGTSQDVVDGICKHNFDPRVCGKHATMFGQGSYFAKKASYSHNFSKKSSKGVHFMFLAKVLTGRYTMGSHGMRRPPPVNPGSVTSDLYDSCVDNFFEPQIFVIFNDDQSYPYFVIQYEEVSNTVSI

`N#Cc1ccc(N2CCN(C(=O)c3cc(Cc4n[nH]c(=O)c5ccc(NC6CC6)cc45)ccc3F)CC2)nc1` [Example 12, 6-(4-(5-((7-(Cyclopropylamino)-4-oxo-3,4-dihydrophthalazin-1-yl)methyl)-2-fluorobenzoyl)piperazin-1-yl)nicotinonitrile] and `N#Cc1ccc(N2CCN(C(=O)c3cc(Cc4n[nH]c(=O)c5ccc(OCC(F)(F)F)cc45)ccc3F)CC2)nc1` [Example 9, 6-(4-(2-Fluoro-5-((4-oxo-7-(2,2,2-trifluoroethoxy)-3,4-dihydrophthalazin-1-yl)methyl)benzoyl)piperazin-1-yl)nicotinonitrile] cannot be ordered by IC50: less than 0.05 µM for the first, less than 0.05 µM for the second.

First: O=C(c1cc(Cc2n[nH]c(=O)c3ccc(OC4CCC4)cc23)ccc1F)N1CCn2c(nnc2C2CC2)C1 [Example 146, 6-cyclobutoxy-4-(3-(3-cyclopropyl-5,6,7,8-tetrahydro-[1,2,4]triazolo[4,3-a]pyrazine-7-carbonyl)-4-fluorobenzyl)phthalazin-1(2H)-one]
Second: 4-(4-Fluoro-3-(4-(5-(trifluoromethyl)pyrimidin-2-yl)piperazine-1-carbonyl)benzyl)-6-(3,3,3-trifluoroprop-1-yn-1-yl)phthalazin-1(2H)-one [Example 42]
The IC50 of the first is lower: less than 0.05 µM for the first, 0.5 to 2 µM for the second.

`O=C(c1cc(Cc2n[nH]c(=O)c3ccc(OC4CCC4)cc23)ccc1F)N1CCC2C1CCN2C(=O)C1CC1` (centres unmarked) [Example 109, 6-cyclobutoxy-4-(3-(4-(cyclopropanecarbonyl)octahydropyrrolo[3,2-b]pyrrole-1-carbonyl)-4-fluorobenzyl)phthalazin-1(2H)-one] and `CC#Cc1ccc2c(=O)[nH]nc(Cc3ccc(F)c(C(=O)N(C)Cc4nnc(C(F)(F)F)o4)c3)c2c1` [Example 202, 2-Fluoro-N-methyl-5-((4-oxo-7-(prop-1-ynyl)-3,4-dihydrophthalazin-1-yl)methyl)-N-((5-(trifluoromethyl)-1,3,4-oxadiazol-2-yl)methyl)benzamide] fall in the same range of IC50: 0.1 to 0.5 µM for the first, 0.1 to 0.5 µM for the second.

Compared with `CN(c1cc(C#N)ccn1)C1CN(C(=O)c2cc(Cc3n[nH]c(=O)c4ccc(OC5COC5)cc34)ccc2F)C1` [Example 124, 2-((1-(2-fluoro-5-((7-(oxetan-3-yloxy)-4-oxo-3,4-dihydrophthalazin-1-yl)methyl)benzoyl)azetidin-3-yl)(methyl)amino)isonicotinonitrile], `N#Cc1ccc(N2C[C@H]3CC[C@@H](C2)N3C(=O)c2cc(Cc3n[nH]c(=O)c4ccc(OC5CCC5)cc34)ccc2F)nc1` [Example 96, 6-(8-(5-((7-Cyclobutoxy-4-oxo-3,4-dihydrophthalazin-1-yl)methyl)-2-fluorobenzoyl)-3,8-diazabicyclo[3.2.1]octan-3-yl)nicotinonitrile] is lower in IC50: greater than 2 µM for the first, less than 0.05 µM for the second. The second is the more potent here.

Compared with `O=C(NC1CN(C(=O)C2CC2)C1)c1cc(Cc2n[nH]c(=O)c3ccc(OC4CCC4)cc23)ccc1F` [Example 203, 5-((7-Cyclobutoxy-4-oxo-3,4-dihydrophthalazin-1-yl)methyl)-N-(1-(cyclopropanecarbonyl)azetidin-3-yl)-2-fluorobenzamide], `N#Cc1ccc(N2CCN(C(=O)c3cc(Cc4n[nH]c(=O)c5ccc(N6CC7(C6)CC(F)(F)C7)cc45)ccc3F)CC2)nc1` [Example 35, 6-(4-(5-((7-(6,6-Difluoro-2-azaspiro[3.3]heptan-2-yl)-4-oxo-3,4-dihydrophthalazin-1-yl)methyl)-2-fluorobenzoyl)piperazin-1-yl)nicotinonitrile] is lower in IC50: 0.1 to 0.5 µM for the first, 0.05 to 0.1 µM for the second. The second is the more potent here.

Compared with `CC#Cc1ccc2c(=O)[nH]nc(Cc3ccc(F)c(C(=O)N4CCN(C(=O)CCC(F)(F)F)CC4)c3)c2c1` [Example 57, 4-(4-Fluoro-3-(4-(4,4,4-trifluorobutanoyl)piperazine-1-carbonyl)benzyl)-6-(prop-1-ynyl)phthalazin-1(2H)-one], `N#Cc1ccc(N2CCN(C(=O)c3cc(Cc4n[nH]c(=O)c5ccc(S(=O)(=O)C6CC(F)(F)C6)cc45)ccc3F)CC2)nc1` [Example 54, 6-(4-(5-((7-((3,3-Difluorocyclobutyl)sulfonyl)-4-oxo-3,4-dihydrophthalazin-1-yl)methyl)-2-fluorobenzoyl)piperazin-1-yl)nicotinonitrile] is higher in IC50: less than 0.05 µM for the first, 0.5 to 2 µM for the second. The first is the more potent here.

First: N#Cc1ccc(N2CCN(C(=O)c3cc(Cc4n[nH]c(=O)c5ccc(Oc6ccc7ccccc7c6)cc45)ccc3F)CC2)nc1 [Example 39, 6-(4-(2-Fluoro-5-((7-(naphthalen-2-yloxy)-4-oxo-3,4-dihydrophthalazin-1-yl)methyl)benzoyl)piperazin-1-yl)nicotinonitrile]
Second: CNC(=O)c1ccnc(N(C)C2CN(C(=O)c3cc(Cc4n[nH]c(=O)c5ccc(OC6CCC6)cc45)ccc3F)C2)c1 [Example 123, 2-((1-(5-((7-cyclobutoxy-4-oxo-3,4-dihydrophthalazin-1-yl)methyl)-2-fluorobenzoyl)azetidin-3-yl)(methyl)amino)-N-methylisonicotinamide]
The IC50 of the first is lower: 0.05 to 0.1 µM for the first, 0.5 to 2 µM for the second.

`COc1nnc2n1CCN(C(=O)c1cc(Cc3n[nH]c(=O)c4ccc(OC5CCC5)cc34)ccc1F)C2` [Example 165, 6-Cyclobutoxy-4-(4-fluoro-3-(3-methoxy-5,6,7,8-tetrahydro-[1,2,4]triazolo[4,3-a]pyrazine-7-carbonyl)benzyl)phthalazin-1(2H)-one] and `C/C(=C\C(F)(F)F)c1ccc2c(=O)[nH]nc(Cc3ccc(F)c(C(=O)N4CCN(c5ccc(C#N)cn5)CC4)c3)c2c1` [Example 32, (E)-6-(4-(2-fluoro-5-((4-oxo-7-(4,4,4-trifluorobut-2-en-2-yl)-3,4-dihydrophthalazin-1-yl)methyl)benzoyl)piperazin-1-yl)nicotinonitrile] cannot be ordered by IC50: less than 0.05 µM for the first, less than 0.05 µM for the second.

Compared with `CC(F)(F)c1cnc(N2CCN(C(=O)c3cc(Cc4n[nH]c(=O)c5ccc(OC6CCC6)cc45)ccc3F)CC2)nc1` [Example 161, 6-cyclobutoxy-4-(3-(4-(5-(1,1-difluoroethyl)pyrimidin-2-yl)piperazine-1-carbonyl)-4-fluorobenzyl)phthalazin-1(2H)-one], `O=C(NC1CN(C(=O)c2cc(Cc3n[nH]c(=O)c4ccc(OC5CCC5)cc34)ccc2F)C1)C1CC1` [Example 113, N-(1-(5-((7-Cyclobutoxy-4-oxo-3,4-dihydrophthalazin-1-yl)methyl)-2-fluorobenzoyl)azetidin-3-yl)cyclopropanecarboxamide] is higher in IC50: less than 0.05 µM for the first, 0.1 to 0.5 µM for the second. The first is the more potent here.

First: N#Cc1cncc(N2CCN(C(=O)c3cc(Cc4n[nH]c(=O)c5ccc(OC6CCC6)cc45)ccc3F)CC2)c1 [Example 141, 5-(4-(5-((7-cyclobutoxy-4-oxo-3,4-dihydrophthalazin-1-yl)methyl)-2-fluorobenzoyl)piperazin-1-yl)nicotinonitrile]
Second: CN(C(=O)C1CC1)C1CN(C(=O)c2cc(Cc3n[nH]c(=O)c4ccc(OC5CCC5)cc34)ccc2F)C1 [Example 121, N-(1-(5-((7-Cyclobutoxy-4-oxo-3,4-dihydrophthalazin-1-yl)methyl)-2-fluorobenzoyl)azetidin-3-yl)-N-methylcyclopropanecarboxamide]
The IC50 of the first is lower: 0.05 to 0.1 µM for the first, 0.5 to 2 µM for the second.

`CN1CCN(C(=O)c2ccc(Cc3n[nH]c(=O)c4c(F)cccc34)cc2)CC1` [Example 186, 8-Fluoro-4-(4-(4-methylpiperazine-1-carbonyl)benzyl)phthalazin-1(2H)-one] and `O=C(c1cc(Cc2n[nH]c(=O)c3ccc(OC4CCC4)cc23)ccc1F)N1CC2CN(c3ncc(C(F)(F)F)cn3)CC2C1` (centres unmarked) [Example 147, 6-cyclobutoxy-4-(4-fluoro-3-(5-(5-(trifluoromethyl)pyrimidin-2-yl)octahydropyrrolo[3,4-c]pyrrole-2-carbonyl)benzyl)phthalazin-1(2H)-one] cannot be ordered by IC50: greater than 2 µM for the first, greater than 2 µM for the second.

First: O=C(c1cc(Cc2n[nH]c(=O)c3ccc(OC4CCC4)cc23)ccc1F)N1CC2CCC1CN2c1ncc(C(F)(F)F)cn1 (centres unmarked) [Example 144, 6-cyclobutoxy-4-(4-fluoro-3-(5-(5-(trifluoromethyl)pyrimidin-2-yl)-2,5-diazabicyclo[2.2.2]octane-2-carbonyl)benzyl)phthalazin-1(2H)-one]
Second: CC#Cc1ccc2c(=O)[nH]nc(Cc3ccc(F)c(C(=O)NC(C)c4nnc(C(F)(F)F)o4)c3)c2c1 (centres unmarked) [Example 200, 2-Fluoro-5-((4-oxo-7-(prop-1-ynyl)-3,4-dihydrophthalazin-1-yl)methyl)-N-(1-(5-(trifluoromethyl)-1,3,4-oxadiazol-2-yl)ethyl)benzamide]
The IC50 of the first is lower: less than 0.05 µM for the first, greater than 2 µM for the second. The first is the more potent here.

For `O=C(C1CC1)N1CCN(c2noc3cc(Cc4n[nH]c(=O)c5ccc(OC6CCC6)cc45)ccc23)CC1` [Example 213, 6-cyclobutoxy-4-((3-(4-(cyclopropanecarbonyl)piperazin-1-yl)benzo[d]isoxazol-6-yl)methyl)phthalazin-1(2H)-one], the IC50 was greater than 2 µM.

Each compound was assayed on NCI-H1373 (human lung adenocarcinoma) cells (assay: Cell proliferation assay (CellTiter-Glo), NCI-H1373). Details: Homo sapiens, NCI-H1373, 144 h, read-out: NCI-H1373 GI50.
Assay type: cell-based

Compared with `N#Cc1ccc(N2CCN(C(=O)c3cc(Cc4n[nH]c(=O)c5ccc(OCC(F)(F)F)cc45)ccc3F)CC2)nc1` [Example 9, 6-(4-(2-Fluoro-5-((4-oxo-7-(2,2,2-trifluoroethoxy)-3,4-dihydrophthalazin-1-yl)methyl)benzoyl)piperazin-1-yl)nicotinonitrile], `N#Cc1ccc(N2CCN(C(=O)c3cc(Cc4n[nH]c(=O)c5ccc(OCC6CC6)cc45)ccc3F)CC2)nc1` [Example 7, 6-(4-(5-((7-(Cyclopropylmethoxy)-4-oxo-3,4-dihydrophthalazin-1-yl)methyl)-2-fluorobenzoyl)piperazin-1-yl)nicotinonitrile] is lower in GI50: 0.1 to 1 µM for the first, less than 0.1 µM for the second.

`N#Cc1ccc(N2CCN(C(=O)c3cccc(Cc4n[nH]c(=O)c5ccc(Cl)cc45)c3)CC2)nc1` [Example 5, 6-(4-(3-((7-Chloro-4-oxo-3,4-dihydrophthalazin-1-yl)methyl)benzoyl)piperazin-1-yl)nicotinonitrile] and `N#Cc1ccc(N2CCN(C(=O)c3cccc(Cc4n[nH]c(=O)c5ccc(F)cc45)c3)CC2)nc1` [Example 6, 6-(4-(3-((7-Fluoro-4-oxo-3,4-dihydrophthalazin-1-yl)methyl)benzoyl)piperazin-1-yl)nicotinonitrile] fall in the same range of GI50: 0.1 to 1 µM for the first, 0.1 to 1 µM for the second.

With `N#Cc1ccc(N2CCN(C(=O)c3cccc(Cc4n[nH]c(=O)c5ccc(Oc6ccccc6)cc45)c3)CC2)nc1` [Example 2, 6-(4-(3-((4-Oxo-7-phenoxy-3,4-dihydrophthalazin-1-yl)methyl)benzoyl)piperazin-1-yl)nicotinonitrile] the GI50 was less than 0.1 µM.

Same assay, conditions: Homo sapiens, NCI-H1373, 144 h; 6 days, CellTiter-Glo; read-out: NCI-H1373 GI50

First: N#Cc1ccc(N2CCN(C(=O)c3cc(Cc4n[nH]c(=O)c5ccc(NC6CC6)cc45)ccc3F)CC2)nc1 [Example 12, 6-(4-(5-((7-(Cyclopropylamino)-4-oxo-3,4-dihydrophthalazin-1-yl)methyl)-2-fluorobenzoyl)piperazin-1-yl)nicotinonitrile]
Second: O=C(c1cc(Cc2n[nH]c(=O)c3ccc(OC4CCC4)cc23)ccc1F)N1CCn2c(nnc2C2CC2)C1 [Example 146, 6-cyclobutoxy-4-(3-(3-cyclopropyl-5,6,7,8-tetrahydro-[1,2,4]triazolo[4,3-a]pyrazine-7-carbonyl)-4-fluorobenzyl)phthalazin-1(2H)-one]
The GI50 of the first is lower: 0.1 to 1 µM for the first, greater than 5 µM for the second.
